Values quoted from earlier work, collected in patent WO2013169007A1, “Sustained-release complex preparations for treating diabetes with improved drug compliance and method for preparing same” (priority 2012, dated 2013).

For `CCC1=C(C)CN(C(=O)NCCc2ccc(S(=O)(=O)NC(=O)N[C@H]3CC[C@H](C)CC3)cc2)C1=O` [glimepiride], which drug half-life (continuous administration) is on record?
Its drug half-life is “about 9 hours”.

What about the “absorption by the gastrointestinal tract” value (in vivo, po) of the same molecule?
Its value is “almost completely absorbed”.
